The values below come from ChEMBL document CHEMBL1135060, “Design and synthesis of peptide-based carboxylic acid-containing transition-state inhibitors of human neutrophil elastase” (Bioorg Med Chem Lett, 2002).

Assay [1] relates to Cricetinae gen. sp. Description: The compound was evaluated for its ability to inhibit the human neutrophil elastase-induced lung hemorrhage in hamster by intravenous bolus administration of 100 mg/Kg dose. In kind it is functional, Cricetulus griseus.
Assay [2] has as its system Cricetinae gen. sp. The assay is described as follows: The compound was evaluated for its ability to inhibit the human neutrophil elastase-induced lung hemorrhage in hamster by intravenous bolus administration of 30 mg/Kg dose. In kind it is functional, Cricetulus griseus.
The next assay has as its target T1, Neutrophil elastase (Homo sapiens, UniProt P08246).
T1 sequence (P08246 whole entry): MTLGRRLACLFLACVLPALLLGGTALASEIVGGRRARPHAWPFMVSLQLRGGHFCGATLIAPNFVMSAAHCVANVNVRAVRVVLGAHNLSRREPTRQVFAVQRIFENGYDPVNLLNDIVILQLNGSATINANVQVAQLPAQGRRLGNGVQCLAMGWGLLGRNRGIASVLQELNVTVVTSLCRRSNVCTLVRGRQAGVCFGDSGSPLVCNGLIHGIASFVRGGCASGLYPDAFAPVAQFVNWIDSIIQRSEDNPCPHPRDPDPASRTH
The assay is described as follows: In vitro inhibition of the human neutrophil elastase-catalyzed hydrolysis of the synthetic substrate Suc-Ala-Pro-Ala-MCA.

The test system of assay [3] is Cricetinae gen. sp. Description: The compound was evaluated for its ability to inhibit the HNE-induced lung hemorrhage in hamster by intravenous bolus administration of 10 mg/Kg dose. In kind it is functional, Cricetulus griseus.
The subject of assay [4] is Cricetinae gen. sp. The assay is described as follows: The compound was evaluated for its ability to inhibit the human neutrophil elastase-induced lung hemorrhage in hamster by intravenous bolus administration of 30 mg/kg dose. It is filed as functional, Cricetulus griseus.
In assay [5] the test system is Cricetinae gen. sp. The assay is described as follows: The compound was evaluated for its ability to inhibit the human neutrophil elastase-induced lung hemorrhage in hamster by intravenous bolus administration of 10 mg/Kg dose. In kind it is functional, Cricetulus griseus.
For assay [6], the system named is Cricetinae gen. sp. The assay is described as follows: The compound was evaluated for its ability to inhibit the human neutrophil elastase-induced lung hemorrhage in hamster by intravenous bolus administration of 10 mg/kg dose. It is filed as functional, Cricetulus griseus.

What is called inhibition in vivo is the change of the read-out against control, counted positive when it falls. A word on the IC50: it is the concentration that gives 50% inhibition. Low readings indicate higher potency, high ones lower potency.

Consider `CC(C)[C@H](NC(=O)[C@@H]1CCCN1C(=O)[C@H](NC(=O)COc1ccc(OCC(=O)O)cc1)C(C)C)C(=O)c1nc2ccccc2o1`, for which the inhibition in vivo at 100 mg/kg in the assay on Cricetinae gen. sp. [1] was determined as 98%. The inhibition in vivo at 30 mg/kg in the assay on Cricetinae gen. sp. [2] was found to be 56%.
For the compound `CCCCC(Oc1cccc2oc(C(=O)[C@@H](NC(=O)OCc3ccccc3)C(C)C)nc12)c1ccccc1` (stereo not given in full), the IC50 at Neutrophil elastase was more than 10 µM.
The same measure, in the same setting: under `CC(C)[C@H](NC(=O)OCc1ccccc1)C(=O)c1nc2ccccc2o1` stands more than 10 µM.
As for `CC(C)[C@H](NC(=O)COc1ccc(OCC(=O)O)cc1)C(=O)c1nc2c(OC(=O)C(C)(C)C)cccc2o1`, at Neutrophil elastase, the IC50 was determined as 0.13 µM. Also, the inhibition in vivo at 100 mg/kg in the assay with Cricetinae gen. sp. [1] amounted to 74%. For the same compound, in the assay on Cricetinae gen. sp. [2], the inhibition in vivo at 30 mg/kg worked out at 13%.
Turning to `CC(C)[C@H](NC(=O)[C@@H]1CCCN1C(=O)[C@@H](NC(=O)COC(=O)c1ccc(OCC(=O)O)cc1)C(C)C)C(=O)c1nc2ccccc2o1`, the IC50 on Neutrophil elastase came out at 0.013 µM. Moreover, in the assay on Cricetinae gen. sp. [3], the inhibition in vivo at 10 mg/kg is 12%. The inhibition in vivo at 30 mg/kg with Cricetinae gen. sp. [2] was determined as 75%.
Consider `CCCCCOc1cccc2oc(C(=O)[C@@H](NC(=O)OCc3ccccc3)C(C)C)nc12`, for which, at Neutrophil elastase, the IC50 is more than 10 µM.
`CC(C)[C@H](NC(=O)[C@@H]1CCCN1C(=O)[C@@H](NC(=O)/C=C/C(=O)O)C(C)C)C(=O)c1nc2ccccc2o1` displayed an IC50 against Neutrophil elastase of 0.072 µM.
The compound `CC(C)CCOc1cccc2oc(C(=O)[C@@H](NC(=O)[C@H]3CCCN3C(=O)COc3ccc(OCC(=O)O)cc3)C(C)C)nc12` displayed an IC50 at Neutrophil elastase of 0.29 µM. Further, the inhibition in vivo at 100 mg/kg in the assay on Cricetinae gen. sp. [1] stood at 99%. Moreover, the inhibition in vivo at 30 mg/kg with Cricetinae gen. sp. [2] was -16%.
Compound `CC(C)[C@H](NC(=O)OCc1ccccc1)C(=O)c1nc2c(OCc3ccccc3)cccc2o1` showed an IC50 against Neutrophil elastase of more than 10 µM.
On Neutrophil elastase, `CC(C)[C@H](NC(=O)[C@@H]1CCCN1C(=O)[C@@H](NC(=O)COc1ccc(SCC(C)(C)C(=O)O)cc1)C(C)C)C(=O)c1nc2ccccc2o1` displayed an IC50 of 0.0035 µM. Also, in the assay with Cricetinae gen. sp. [1], the inhibition in vivo at 100 mg/kg was 99%. For the same compound, the inhibition in vivo at 30 mg/kg in the assay on Cricetinae gen. sp. [4] is 86%. In addition, in the assay with Cricetinae gen. sp. [5], the inhibition in vivo at 10 mg/kg came out at 30%.
On to `CC(C)[C@H](NC(=O)[C@@H]1CCCN1C(=O)[C@@H](NC(=O)CNC(=O)c1ccc(OCC(=O)O)cc1)C(C)C)C(=O)c1nc2ccccc2o1`, for which 0.033 µM corresponded to half-maximal inhibition against Neutrophil elastase (IC50). Further, the inhibition in vivo at 30 mg/kg in the assay with Cricetinae gen. sp. [4] amounted to 99%. The inhibition in vivo at 10 mg/kg with Cricetinae gen. sp. [6] turned out to be 46%.
`CC(C)[C@H](NC(=O)OCc1ccccc1)C(=O)c1nc2c(OCC(N)=O)cccc2o1` yielded an IC50 on Neutrophil elastase of more than 10 µM.
As to `CC(C)[C@H](NC(=O)OCc1ccccc1)C(=O)c1nc2c(O)cccc2o1`, the IC50 at Neutrophil elastase was more than 10 µM.
For the compound `CC(C)CCOc1cccc2oc(C(=O)[C@@H](NC(=O)OCc3ccccc3)C(C)C)nc12`, on Neutrophil elastase, half-maximal inhibition (IC50) was put at 7.8 µM.
In turn, `CC(C)[C@H](NC(=O)[C@@H]1CCCN1C(=O)[C@@H](NC(=O)N[C@H](C)C(=O)O)C(C)C)C(=O)c1nc2ccccc2o1` displayed an IC50 at Neutrophil elastase of 0.28 µM. Further, in the assay on Cricetinae gen. sp. [2], the inhibition in vivo at 30 mg/kg amounted to 39%.
As to `CC(C)[C@H](NC(=O)[C@H]1CCCN1C(=O)COc1ccc(OCC(=O)O)cc1)C(=O)c1nc2c(OC(=O)C(C)(C)C)cccc2o1`, the IC50 against Neutrophil elastase worked out at 0.23 µM. In addition, the inhibition in vivo at 100 mg/kg in the assay with Cricetinae gen. sp. [1] is 96%. Besides, in the assay with Cricetinae gen. sp. [2], the inhibition in vivo at 30 mg/kg was 66%.
`COC(=O)COc1cccc2oc(C(=O)[C@@H](NC(=O)OCc3ccccc3)C(C)C)nc12` yielded an IC50 against Neutrophil elastase of more than 10 µM.
On Neutrophil elastase, `CC(C)[C@H](NC(=O)[C@@H]1CCCN1C(=O)[C@@H](NC(=O)COc1ccccc1OCC(=O)O)C(C)C)C(=O)c1nc2ccccc2o1` registered an IC50 of 0.0072 µM. In the assay with Cricetinae gen. sp. [1], the inhibition in vivo at 100 mg/kg is 90%. Also, in the assay on Cricetinae gen. sp. [5], the inhibition in vivo at 10 mg/kg worked out at 37%. For the same compound, the inhibition in vivo at 30 mg/kg in the assay on Cricetinae gen. sp. [2] was found to be 48%.
In turn, `CC(C)[C@H](NC(=O)OCc1ccccc1)C(=O)c1nc2c(OCc3cccc(C(F)(F)F)c3)cccc2o1` gave an IC50 against Neutrophil elastase of more than 10 µM.
`CC(C)=CCOc1cccc2oc(C(=O)[C@@H](NC(=O)OCc3ccccc3)C(C)C)nc12` displayed an IC50 on Neutrophil elastase of more than 10 µM.
As to `CC(C)[C@H](NC(=O)[C@@H]1CCCN1C(=O)[C@@H](NC(=O)c1ccc(OCC(=O)O)cc1)C(C)C)C(=O)c1nc2ccccc2o1`, the IC50 against Neutrophil elastase worked out at 0.0074 µM. Also, in the assay with Cricetinae gen. sp. [5], the inhibition in vivo at 10 mg/kg amounted to 15%. Besides, the inhibition in vivo at 30 mg/kg with Cricetinae gen. sp. [2] worked out at 60%.
For `CC(C)[C@H](NC(=O)OCc1ccccc1)C(=O)c1nc2c(OC(=O)C(C)(C)C)cccc2o1`, half-maximal inhibition against Neutrophil elastase (IC50) was put at 0.45 µM.
At Neutrophil elastase, `CC(C)[C@H](NC(=O)[C@@H]1CCCN1C(=O)[C@@H](NC(=O)CCC(=O)O)C(C)C)C(=O)c1nc2ccccc2o1` came in with an IC50 of 0.066 µM. The inhibition in vivo at 30 mg/kg in the assay on Cricetinae gen. sp. [2] amounted to 61%.
With `CC(C)[C@H](NC(=O)OCc1ccccc1)C(=O)c1nc2c(OCC(=O)O)cccc2o1`, the IC50 at Neutrophil elastase is more than 10 µM.
Turning to `CC(C)[C@H](NC(=O)[C@@H]1CCCN1C(=O)[C@@H](NC(=O)COc1ccc(OCC(=O)O)cc1)C(C)C)C(=O)c1nc2c(OC(=O)C(C)(C)C)cccc2o1`, half-maximal inhibition against Neutrophil elastase (IC50) required 0.0089 µM. Besides, the inhibition in vivo at 100 mg/kg in the assay on Cricetinae gen. sp. [1] is 99%. Also, the inhibition in vivo at 30 mg/kg with Cricetinae gen. sp. [2] came out at 73%.
In the case of `CCOc1cccc2oc(C(=O)[C@@H](NC(=O)OCc3ccccc3)C(C)C)nc12`, the IC50 against Neutrophil elastase is more than 10 µM.
At Neutrophil elastase, `CC(C)[C@H](NC(=O)OCc1ccccc1)C(=O)c1nc2c(OCCN(C)C)cccc2o1` returned an IC50 of more than 10 µM.
